Data as given in ChEMBL document CHEMBL3045068, “Effect of methomyl and oxamyl soil applications on early control of nematodes and insects” (Pest Manag Sci, 2011).

Columns and labels:
[1] = system: Phaseolus lunatus; test: Phytotoxicity in Phaseolus lunatus (lima bean) root assessed as root dry weight at 2.56 kg ai/ha applied to soil measured up to 14 days under green house conditions (reference value: 0.36 +/- 0.071 g); format: organism-based; settings: in vivo, other, 336 h
[2] = system: Solanum lycopersicum; test: Phytotoxicity in Solanum lycopersicum (tomato) assessed as foliar edge burn at 200 ug/mL applied through foliar spray after 5 weeks; format: organism-based; settings: in vivo, other, 840 h
[3] = system: Gossypium hirsutum; test: Phytotoxicity in Gossypium hirsutum (cotton) assessed as concentration required to cause foliar edge burn applied to soil after 3 weeks; format: organism-based; settings: in vivo, other, 504 h
[4] = system: Gossypium hirsutum; test: Phytotoxicity in Gossypium hirsutum (cotton) assessed as concentration required to cause foliar edge burn applied through foliar spray after 4 weeks; format: organism-based; settings: in vivo, other, 672 h
[5] = system: Meloidogyne incognita; test: Nematicidal activity against second juvenile stage of Meloidogyne incognita (root-knot nematode) infected lima bean plant assessed as shoot dry weight at 3 kg ai/ha applied to soil measured up to 7 days post planting under green house conditions (reference value: 1.84 +/- 0.18 g); format: functional
[6] = system: Meloidogyne incognita; test: Nematicidal activity against second juvenile stage of Meloidogyne incognita (root-knot nematode) infected lima bean plant assessed as shoot dry weight at 2 kg ai/ha applied to soil measured during planting under green house conditions (reference value: 1.84 +/- 0.18 g); format: functional
[7] = system: Meloidogyne incognita; test: Nematicidal activity against second juvenile stage of Meloidogyne incognita (root-knot nematode) infected pea plant assessed as root fresh weight at 3 kg ai/ha applied to soil measured up to 14 days post planting under green house conditions (reference value: 1.83 +/- 0.3 g); format: functional
[8] = system: Meloidogyne incognita; test: Nematicidal activity against second juvenile stage of Meloidogyne incognita (root-knot nematode) infected pea plant assessed as root fresh weight at 4 kg ai/ha applied to soil measured up to 14 days post planting under green house conditions (reference value: 4.3 +/- 0.56 g); format: functional
[9] = system: Meloidogyne incognita; test: Nematicidal activity against second juvenile stage of Meloidogyne incognita (root-knot nematode) infected pea plant assessed as plant fresh weight at 3 kg ai/ha applied to soil measured up to 14 days post planting under green house conditions (reference value: 4.3 +/- 0.56 g); format: functional
[10] = system: Meloidogyne incognita; test: Nematicidal activity against second juvenile stage of Meloidogyne incognita (root-knot nematode) infected pea plant assessed as root dry weight at 4 kg ai/ha applied to soil measured up to 14 days post planting under green house conditions (reference value: 0.25 +/- 0.041 g); format: functional
[11] = system: Meloidogyne incognita; test: Nematicidal activity against second juvenile stage of Meloidogyne incognita (root-knot nematode) infected pea plant assessed as reduction in root gall index at 4 kg ai/ha applied to soil measured up to 7 days post planting under green house conditions (reference value: 9.7 +/- 0.30%); format: functional
[12] = system: Meloidogyne incognita; test: Nematicidal activity against second juvenile stage of Meloidogyne incognita (root-knot nematode) infected pea plant assessed as reduction in root gall index at 4 kg ai/ha applied to soil measured up to 14 days post planting under green house conditions (reference value: 9.7 +/- 0.30%); format: functional
[13] = system: Meloidogyne incognita; test: Nematicidal activity against second juvenile stage of Meloidogyne incognita (root-knot nematode) infected pea plant assessed as reduction in root gall index at 2 kg ai/ha applied to soil measured up to 7 days post planting under green house conditions (reference value: 9.7 +/- 0.30%); format: functional
[14] = system: Phaseolus lunatus; test: Phytotoxicity in Phaseolus lunatus (lima bean) plant assessed as plant dry weight at 3.12 kg ai/ha applied to soil measured up to 14 days under green house conditions (reference value: 1.20 +/- 0.21 g); format: organism-based; settings: in vivo, other, 336 h
[15] = system: Phaseolus lunatus; test: Phytotoxicity in Phaseolus lunatus (lima bean) plant assessed as plant dry weight at 2.56 kg ai/ha applied to soil measured up to 14 days under green house conditions (reference value: 1.20 +/- 0.21 g); format: organism-based; settings: in vivo, other, 336 h
[16] = system: Phaseolus lunatus; test: Phytotoxicity in Phaseolus lunatus (lima bean) plant assessed as plant dry weight at 0.56 kg ai/ha applied to soil under green house conditions (reference value: 1.20 +/- 0.21 g); format: organism-based; settings: in vivo, other
[17] = system: Phaseolus lunatus; test: Phytotoxicity in Phaseolus lunatus (lima bean) plant assessed as emergence at 3.12 kg ai/ha applied to soil measured up to 14 days under green house conditions (reference value: 70 +/- 16%); format: organism-based; settings: in vivo, other, 336 h
[18] = system: Phaseolus lunatus; test: Phytotoxicity in Phaseolus lunatus (lima bean) plant assessed as emergence at 1.12 kg ai/ha applied to soil under green house conditions (reference value: 70 +/- 16%); format: organism-based; settings: in vivo, other
[19] = system: Phaseolus lunatus; test: Phytotoxicity in Phaseolus lunatus (lima bean) plant assessed as emergence at 2.12 kg ai/ha applied to soil measured up to 7 days under green house conditions (reference value: 70 +/- 16%); format: organism-based; settings: in vivo, other, 168 h
[20] = system: Pisum sativum; test: Phytotoxicity in Pisum sativum (pea) assessed as root dry weight at 4 kg ai/ha applied to soil measured up to 7 days post planting at 19 degC (reference value: 2 +/- 0.21 g); format: organism-based; settings: lathyrus oleraceus, in vivo, other, 168 h
[21] = system: Pisum sativum; test: Phytotoxicity in Pisum sativum (pea) assessed as root dry weight at 4 kg ai/ha applied to soil measured up to 7 days post planting at 27 degC under green house conditions (reference value: 0.33 +/- 0.075 g); format: organism-based; settings: lathyrus oleraceus, in vivo, other, 168 h
[22] = system: Pisum sativum; test: Phytotoxicity in Pisum sativum (pea) assessed as emergence at 3 kg ai/ha applied to soil measured up to 7 days post planting at 27 degC under green house conditions (reference value: 70 +/- 3.3%); format: organism-based; settings: lathyrus oleraceus, in vivo, other, 168 h
[23] = system: Meloidogyne incognita; test: Nematicidal activity against second juvenile stage of Meloidogyne incognita (root-knot nematode) infected lima bean plant assessed as root dry weight at 2 kg ai/ha applied to soil measured during planting under green house conditions (reference value: 0.5 +/- 0.052 g); format: functional
[24] = system: Meloidogyne incognita; test: Nematicidal activity against second juvenile stage of Meloidogyne incognita (root-knot nematode) infected lima bean plant assessed as reduction in root gall index at 3 kg ai/ha applied to soil measured up to 7 days post planting under green house conditions (reference value: 7 +/- 0.27%); format: functional
[25] = system: Meloidogyne incognita; test: Nematicidal activity against second juvenile stage of Meloidogyne incognita (root-knot nematode) infected lima bean plant assessed as reduction in root gall index at 2 kg ai/ha applied to soil measured up to 7 days post planting under green house conditions (reference value: 7 +/- 0.27%); format: functional
[26] = system: Meloidogyne incognita; test: Nematicidal activity against second juvenile stage of Meloidogyne incognita (root-knot nematode) infected lima bean plant assessed as reduction in root gall index at 1 kg ai/ha applied to soil measured during planting under green house conditions (reference value: 7 +/- 0.27%); format: functional
[27] = system: Meloidogyne incognita; test: Nematicidal activity against second juvenile stage of Meloidogyne incognita (root-knot nematode) infected lima bean plant assessed as emergence at 4 kg ai/ha applied to soil measured up to 14 days post planting under green house conditions (reference value: 83 +/- 5%); format: functional
[28] = system: Meloidogyne incognita; test: Nematicidal activity against second juvenile stage of Meloidogyne incognita (root-knot nematode) infected lima bean plant assessed as emergence at 2 kg ai/ha applied to soil measured during planting under green house conditions (reference value: 83 +/- 5%); format: functional
[29] = system: Meloidogyne incognita; test: Nematicidal activity against second juvenile stage of Meloidogyne incognita (root-knot nematode) infected lima bean plant assessed as emergence at 3 kg ai/ha applied to soil measured up to 14 days post planting under green house conditions (reference value: 83 +/- 5%); format: functional

CNC(=O)ON=C(C)SC [METHOMYL] was tested, and the Activity [1] was 0.31 g, the Activity [2] was “Non-toxic” and the Activity [3] was 100 µg/mL. For the same compound, the Activity [4] was 500 µg/mL, the Activity [5] was 1.39 g and the Activity [6] was 1.59 g. The Activity [7] was 0.89 g, the Activity [8] was 5.5 g and the Activity [9] was 5.2 g. It also gave an Activity [10] of 0.31 g, a Root_galling_index [11] of 0% and a Root_galling_index [12] of 0%. The Root_galling_index [13] was 0%, the Activity [14] was 0.87 g and the Activity [15] was 1.25 g. It also gave an Activity [16] of 1.2 g, an Activity [17] of 60% and an Activity [18] of 80%. For the same compound, the Activity [19] was 80%, the Activity [20] was 1.7 g and the Activity [21] was 0.28 g. It also gave an Activity [22] of 70%, an Activity [23] of 0.36 g and a Root_galling_index [24] of 0%. The Root_galling_index [25] was 0%, the Root_galling_index [26] was 0% and the Activity [27] was 83%. For the same compound, the Activity [28] was 100% and the Activity [29] was 83%.
